From publication PMC11662004 (Communications Chemistry, 2024)

Target: T1, TET2CDΔLCI (Homo sapiens, UniProt Q6N021)
T1 construct: FLAG-[thrombin cleavage site]-SUMO (N); made in house; host or cells: E. coli
Assay: Continuous reaction monitoring (1H NMR), 2OG decarboxylation
Type: biochemical
Conditions: for V0 TET2: 20 µM DNA, 100 μM 2OG, 5 μM TET2CDΔLCI; for Relative V0 TET2: relative to reactions without DNA
Experimental: Double-stranded DNA oligomers were added at a final concentration of 20 µM. Data plotted from two independent replicates (n = 2). Initial rates reported as the mean of two independent replicates (n = 2). TEXT PRINTED IN THE PICTURE: (c) No DNA: V0 (μM min^−1) NgTet1: 0.36; V0 (μM min^−1) TET2: 1.28; Relative V0 NgTet1: 1; Relative V0 TET2: 1 | (c) ^5HC DNA: V0 (μM min^−1) NgTet1: 1.30; V0 (μM min^−1) TET2: 6.34; Relative V0 NgTet1: 3.6; Relative V0 TET2: 5.0 | (c) AT DNA: V0 (μM min^−1) NgTet1: 0.82; V0 (μM min^−1) TET2: 5.78; Relative V0 NgTet1: 2.3; Relative V0 TET2: 4.5 | (c) ^5mC DNA: V0 (μM min^−1) NgTet1: 1.52; V0 (μM min^−1) TET2: 6.79; Relative V0 NgTet1: 4.2; Relative V0 TET2: 5.3
All ^1H NMR spectra were recorded at 25 °C using D2O as a reference for internal deuterium lock on a Bruker Avance III 700 MHz equipped with an inverse TCI cryoprobe in 3 or 5 mm diameter tubes with a total sample volume of 160 or 565 μL, respectively. The water signal was reduced using Perfect Echo excitation sculpting suppression. Chemical shifts are reported in ppm relative to D2O (δH = 4.70 ppm).
Spectrometer settings were determined using a control sample containing all reaction components excluding enzyme. TET enzyme was added to an identical sample, and the resulting assay mixture was transferred to an NMR tube before deposition into the instrument. […] Data acquisition was started following a brief spectrometer setting optimisation (up to 200 s delay between enzyme addition and data acquisition); 8–32 scans were accumulated for a single spectrum, corresponding to 65–179 s of acquisition time. Spectrum recordings were carried out consecutively without delay. Data were processed using automated routines on MestReNova v14.2.0; signals of interest were integrated with absolute intensity scaling. ^1H NMR time courses reported in figures are representative results from two or three independent replicates.

[1] = n = 1, time (min) 5HC DNA 5.78333, AT DNA 5.73333, 5mC DNA 5.58333
[2] = n = 1, time (min) 5HC DNA 8.86667, AT DNA 8.81667, 5mC DNA 8.65
[3] = n = 1, time (min) 5HC DNA 11.95, AT DNA 11.8833, 5mC DNA 11.7333
[4] = n = 1, time (min) 5HC DNA 15.0333, AT DNA 14.9667, 5mC DNA 14.8167
[5] = n = 1, time (min) 5HC DNA 18.1167, AT DNA 18.05, 5mC DNA 17.9
[6] = n = 1, time (min) 5HC DNA 21.2333, AT DNA 21.1333, 5mC DNA 21
[7] = n = 1, time (min) 5HC DNA 24.3333, AT DNA 24.2167, 5mC DNA 24.0667
[8] = n = 1, time (min) 5HC DNA 27.4167, AT DNA 27.3, 5mC DNA 27.15
[9] = n = 1, time (min) 5HC DNA 30.55, AT DNA 30.3833, 5mC DNA 30.2333
[10] = n = 1, time (min) 5HC DNA 33.65, AT DNA 33.4667, 5mC DNA 33.3167
[11] = n = 1, time (min) 5HC DNA 36.7333, AT DNA 36.5333, 5mC DNA 36.4
[12] = n = 1, time (min) 5HC DNA 39.8333, AT DNA 39.6167, 5mC DNA 39.4833
[13] = n = 1, time (min) 5HC DNA 42.9, AT DNA 42.7, 5mC DNA 42.5667
[14] = n = 1, time (min) 5HC DNA 46, AT DNA 45.7833, 5mC DNA 45.6667
[15] = n = 1, time (min) 5HC DNA 49.0833, AT DNA 48.8667, 5mC DNA 48.75
[16] = n = 1, time (min) 5HC DNA 52.1667, AT DNA 51.95, 5mC DNA 51.8333
[17] = n = 1, time (min) 5HC DNA 55.25, AT DNA 55.0333, 5mC DNA 54.9167
[18] = n = 1, time (min) 5HC DNA 58.3167, AT DNA 58.1167, 5mC DNA 58
[19] = n = 1, time (min) 5HC DNA 61.4, AT DNA 61.2667, 5mC DNA 61.1
[20] = n = 2, time (min) 5HC DNA 5.66667, AT DNA 5.66667, 5mC DNA 5.8
[21] = n = 2, time (min) 5HC DNA 8.75, AT DNA 8.75, 5mC DNA 8.88333
[22] = n = 2, time (min) 5HC DNA 11.8333, AT DNA 11.85, 5mC DNA 11.9667
[23] = n = 2, time (min) 5HC DNA 14.9167, AT DNA 14.9333, 5mC DNA 15.05
[24] = n = 2, time (min) 5HC DNA 18.0167, AT DNA 18.0167, 5mC DNA 18.1167
[25] = n = 2, time (min) 5HC DNA 21.1, AT DNA 21.1, 5mC DNA 21.2
[26] = n = 2, time (min) 5HC DNA 24.1833, AT DNA 24.1667, 5mC DNA 24.2833
[27] = n = 2, time (min) 5HC DNA 27.25, AT DNA 27.25, 5mC DNA 27.3667
[28] = n = 2, time (min) 5HC DNA 30.3333, AT DNA 30.3333, 5mC DNA 30.45
[29] = n = 2, time (min) 5HC DNA 33.4167, AT DNA 33.4167, 5mC DNA 33.5333
[30] = n = 2, time (min) 5HC DNA 36.5, AT DNA 36.5, 5mC DNA 36.6167
[31] = n = 2, time (min) 5HC DNA 39.5833, AT DNA 39.5833, 5mC DNA 39.7
[32] = n = 2, time (min) 5HC DNA 42.6667, AT DNA 42.6667, 5mC DNA 42.7833
[33] = n = 2, time (min) 5HC DNA 45.75, AT DNA 45.75, 5mC DNA 45.8667
[34] = n = 2, time (min) 5HC DNA 48.8333, AT DNA 48.8333, 5mC DNA 48.95

Substance: 5HC DNA: non-methylated DNA of the same sequence, 5'-ACC ACC GGT GGT-3', non-substrate (DNA ACCACCGGTGGT; DNA, backbone not given here)
- V0 TET2: 6.34 µM/min
- succinate [1]: 44.3007 µM
- succinate [2]: 54.4828 µM
- succinate [3]: 59.3102 µM
- succinate [4]: 61.4847 µM
- succinate [5]: 65.1131 µM
- succinate [6]: 67.3764 µM
- succinate [7]: 68.0997 µM
- succinate [8]: 69.3831 µM
- succinate [9]: 70.6241 µM
- succinate [10]: 71.0252 µM
- succinate [11]: 71.8004 µM
- succinate [12]: 71.1327 µM
- succinate [13]: 71.8764 µM
- succinate [14]: 73.8393 µM
- succinate [15]: 72.8966 µM
- succinate [16]: 73.2704 µM
- succinate [17]: 74.052 µM
- succinate [18]: 74.0256 µM
- succinate [19]: 74.622 µM
- succinate [20]: 46.0808 µM
- succinate [21]: 55.6216 µM
- succinate [22]: 60.916 µM
- succinate [23]: 64.6085 µM
- succinate [24]: 67.8421 µM
- succinate [25]: 69.2588 µM
- succinate [26]: 70.2836 µM
- succinate [27]: 71.3409 µM
- succinate [28]: 71.8731 µM
- succinate [29]: 71.8297 µM
- succinate [30]: 74.102 µM
- succinate [31]: 75.5956 µM
- succinate [32]: 75.7723 µM
- succinate [33]: 76.9891 µM
- succinate [34]: 76.9274 µM
- Relative V0 TET2: 5.0

Substance: AT DNA: double-stranded self-complementary 5'-ACC ACA TGT GGT-3', CpG replaced by ApT (DNA ACCACATGTGGT; DNA, backbone and methylation of C not given here; self-complementary duplex)
- V0 TET2: 5.78 µM/min
- succinate [1]: 39.5956 µM
- succinate [2]: 49.5065 µM
- succinate [3]: 54.2458 µM
- succinate [4]: 57.9674 µM
- succinate [5]: 59.2828 µM
- succinate [6]: 62.1944 µM
- succinate [7]: 62.9572 µM
- succinate [8]: 64.7984 µM
- succinate [9]: 64.7023 µM
- succinate [10]: 65.163 µM
- succinate [11]: 66.9776 µM
- succinate [12]: 66.6376 µM
- succinate [13]: 66.8738 µM
- succinate [14]: 68.072 µM
- succinate [15]: 67.0651 µM
- succinate [16]: 67.7938 µM
- succinate [17]: 69.134 µM
- succinate [18]: 67.5356 µM
- succinate [19]: 68.2246 µM
- succinate [20]: 40.358 µM
- succinate [21]: 49.4783 µM
- succinate [22]: 54.4351 µM
- succinate [23]: 56.62 µM
- succinate [24]: 59.0171 µM
- succinate [25]: 60.9868 µM
- succinate [26]: 62.4531 µM
- succinate [27]: 63.5112 µM
- succinate [28]: 64.7948 µM
- succinate [29]: 64.9179 µM
- succinate [30]: 65.839 µM
- succinate [31]: 65.6357 µM
- succinate [32]: 67.3494 µM
- succinate [33]: 68.1347 µM
- succinate [34]: 66.7934 µM
- Relative V0 TET2: 4.5
